Experimental data as given in paper doi:10.1101/2025.07.20.665728 (bioRxiv, 2025).

Columns and labels:
C1R.MR1 cells = test: Cell surface MR1 quantification by flow cytometry, C1R.MR1; assay type: cell-based; settings: for MR1 cell surface expression: 1–200 μM
Protocol: Next, we investigated whether these RF catabolites can impact MR1 cell surface expression in both MR1-transduced B cell lymphoblastoid (C1R.MR1) and monocytic (THP-1.MR1) cell lines (Fig. 2). Here, the cells were pulsed with 1–200 μM of RF or the RF catabolites, and the cell surface levels of MR1 were quantified by flow cytometry ([Awad et al., 2020a]; [Keller et al., 2017]). Cell viability was unaffected, even at highest concentrations of the catabolites, as depicted in Fig. S2A. […] No impact on the MR1 surface level was observed when the parental C1R cells were incubated with these RF catabolites, probably due to the low basal surface MR1 level whose further reduction becomes undetectable by the anti-MR1 antibody (Fig. S2B). The MR1 downregulation seen in C1R.MR1 cells was specific to MR1 as the level of HLA-A*02:01 was not affected after pulsing C1R-A2 with the ligands (Fig. S2C). […] This MR1 downregulation varied between cell types, with a higher extent observed in THP-1.MR1 than C1R.MR1, and was seen after staining with both two conformational anti-MR1 8F2F9 and 26.5 antibodies (clones 8F2F9 and 26.5; Fig. 2G).
(§1) The level of MR1 expressed on the cell surface was measured after the exposure to the investigated ligands as previously described ([Awad et al., 2020a]; [Wang et al., 2022a]). C1R antigen presenting B lymphocytes overexpressing MR1*01 (C1R.MR1), MR1^K43A mutant (C1R.MR1^K43A), MR1^R9H mutant (C1R.MR1^R9H) or HLA-A*02:01 (C1R-A2), in addition to the monocytic THP-1-MR1 cells, were used in this study. 2 x 10^5 cells were incubated with RF catabolites for 3 or 16 h at 37° C and 5% CO2 in 200 μl folate-free RPMI 1640 medium from Gibco (Cat. No. 11875-093) fortified with 10% fetal bovine serum (FBS), sodium pyruvate (1 mmol/L), Hepes buffer (15 mmol/L), pH 7.2 to 7.5, 2% penicillin (100 U/ml), streptomycin ([…]), glutamax (2 mmol/L), nonessential amino acids (0.1 mmol/L) (all from ThermoFisher, Life Technologies), and 2-mercaptoethanol ([…], Sigma) (RF-10). After incubation, the cells were first stained with Zombie Aqua Fixable Viability Kit from BioLegend (Cat. No. 423102) and then incubated with biotinylated 8F2F9 αMR1 antibody for 30 minutes on ice. The unbound antibody was then washed off with 2% fetal bovine serum/PBS. The cells were finally incubated with PE-conjugated streptavidin (BioLegend, 30 μg/ml) and then washed with 2% fetal bovine serum/PBS. The PE fluorescence intensity reflects the surface MR1 level. The data was acquired with an LSRFortessa X-20 (BD Biosciences) and Diva software (BD Biosciences) and analyzed using FlowJo software (BD Biosciences).

C1R.MR1^K43A cells = test: Cell surface MR1 K43A quantification, C1R.MR1^K43A; assay type: cell-based
Source text: We then tested the effect of the RF catabolites on the expression of two mutant versions of MR1 termed MR1^R9H ([Howson et al., 2020]) and MR1^K43A ([Reantragoon et al., 2013]). First, we tested the MR1^R9H mutant ([Howson et al., 2020]) which represents a rare, natural human polymorph. […] When C1R. […] Next, we tested sought to understand how the previously characterised Lys43A mutation affects ligand binding. […] While this is in line with the ability of these ligands to bind MR1, the reason for MR1^K43A cell surface accumulation is less clear. The most likely explanation is that these ligands bind ER-resident MR1^K43A, in line with our data using wild-type MR1; however, because the K43A mutation results in spontaneous MR1 surface egress, the presence of these stabilising ligands promotes enhanced trafficking and/or retention at the cell surface. We cannot rule out however that the ligands may also bind directly to surface MR1^K43A and slow down the recycling from cell surface.
as §1
Figure S2. Responses of different APCs to RF catabolites. […] C1R cells expressing (b) wild-type level of MR1*01, or overexpressing (c) HLA-A*02:01 or (d) MR1.K43A mutant were incubated for the indicated periods with titrated quantities of ligand followed by flow cytometry. The C1R and C1R.A2 cells were stained with biotinylated 8F2F9 and W6/32, respectively; followed by PE-labelled streptavidin. In all experiments, the MR1 and HLA-A*02:01 surface expression are depicted as a fold change from basal surface expression upon incubation with the vehicle (1 mM NaOH). Each column represents the average of at least three independent experiments performed in duplicate with standard error (SEM) represented by error bars. One-way ANOVA statistical analysis was performed for all samples followed by Dunnett multiple comparison test using NaOH as a control (ns; not significant, * p <0.05, **p < 0.01, ***p < 0.001, ****p < 0.0001).

[1] = test system: SKW-3 cells expressing AF-7 (TRAV1-2/TRBV6-1) TCR; test: MAIT cell activation assay, SKW-3 AF-7 TCR co-cultured with C1R.MR1; assay type: cell-based; settings: for 5-OP-RU-induced activation (CD69): SKW-3 AF-7, in presence of 1 nM 5-OP-RU; for CD69 surface expression (activation): SKW-3 AF-7, ligand alone
Protocol: Next, we explored whether RF catabolites could activate SKW-3 cells expressing two different MAIT TCRs. Distinct responses of T cells expressing TCRs with varying TRBV chain usage reinforces the role of Vβ in modulating MAIT responses to various ligands ([Chancellor et al., 2023]; [Gherardin et al., 2016]; [Seneviratna et al., 2022]).The surface expression of CD69 was measured as a marker for activation of cells expressing the AF-7 (TRAV1-2/TRBV6-1) or MBV28 (TRAV1-2/TRBV28) TCRs after co-culture with C1R.MR1 cells and the ligands.
C1R.MR1 cells (1 x 10^5) were initially stained with CTV for 15 minutes and then incubated with RF catabolites for 20 h. […] Cells were subsequently stained with PE-Cy7-conjugated anti-CD69 (BD; 1:100) and PE-labelled anti-MR1 (26.5 clone; BD; 1:100), before analysis on LSRFortessa (BD Biosciences) flow cytometer. Activation of SKW-3-MAIT cells was reflected by the cell-surface CD69 expression.

soluble WT MR1 = test: Fluorescence-based thermal shift assay of MR1-ligand complexes; assay type: binding, human; settings: MR1 refolded with the ligand, Sypro Orange, three independent experiments

Cc1cc2nc3c(=O)[nH]c(=O)nc-3n(C[C@H](O)[C@H](O)[C@H](O)CO)c2cc1C [RF, Riboflavin]
MR1 cell surface expression (C1R.MR1 cells; C1R.MR1, 3 h): did not alter MR1 expression from the baseline | MR1 cell surface expression (C1R.MR1 cells; C1R.MR1, 16 h): modestly upregulated MR1 | MR1^K43A at the cell surface (C1R.MR1^K43A cells; 16 h): MR1 upregulation continues | 5-OP-RU-induced activation (CD69) [1]: could not compete with 5-OP-RU | CD69 surface expression (activation) [1]: minor increase in CD69

Cc1cc2nc3[nH]c(=O)[nH]c(=O)c3nc2cc1C [Lumichrome, 7,8-dimethylalloxazine]
Tm50 (half maximum melting temperature), Mean ± SD (soluble WT MR1; listed as MR1-lumichrome): 49.9–52.0 °C | MR1 cell surface expression (C1R.MR1 cells; C1R.MR1, 3 h): reduced MR1 cell surface | rank as down-regulator of MR1 cell surface expression (C1R.MR1 cells; overall, C1R.MR1 and THP-1.MR1): most potent down-regulator | MR1^K43A at the cell surface (C1R.MR1^K43A cells; 3 h): increased | MR1^K43A at the cell surface (C1R.MR1^K43A cells; 16 h): MR1 upregulation continues | 5-OP-RU-induced activation (CD69) [1]: enhanced the 5-OP-RU-induced CD69 expression | CD69 surface expression (activation) [1]: minor reductions in CD69 | MR1 expression on C1R.MR1 in co-culture ([1]; SKW-3 AF-7 co-culture with 5-OP-RU): dose-dependent reduction in MR1 expression

Cc1cc2nc3c(=O)[nH]c(=O)nc-3n(C)c2cc1C [Lumiflavin]
Tm50 (half maximum melting temperature), Mean ± SD (soluble WT MR1; listed as MR1-lumiflavin): 49.9–52.0 °C | MR1^K43A at the cell surface (C1R.MR1^K43A cells; 3 h): increased | 5-OP-RU-induced activation (CD69) [1]: slightly exaggerated | CD69 surface expression (activation) [1]: minor increase in CD69

O=c1nc2[nH]c3ccccc3nc-2c(=O)[nH]1 [Alloxazine, alloxazine]
Tm50 (half maximum melting temperature), Mean ± SD (soluble WT MR1; listed as MR1-alloxazine): 49.9–52.0 °C | MR1 cell surface expression (C1R.MR1 cells; C1R.MR1, 3 h): reduced MR1 cell surface | MR1^K43A at the cell surface (C1R.MR1^K43A cells; 3 h): increased
